This is an account of results in US20090269795A1, “Mutant alpha4betadelta GABAA receptor and methods of treating anxiety or irritability” (priority 2007, published 2009).

Test [1] concerns CA1 hippocampal pyramidal cells. Kind of test: Tonic GABAergic current, perforated-patch voltage-clamp, hippocampal slice. The format is cell-based, mouse. As for the experimental part:
Tonic current was recorded as the difference current produced by the selective GABAA receptor antagonist gabazine (120 μM) before and after 30 nM THP^4,29, while gramicidin perforated-patch recordings^33 were accomplished using 140 mM KCl plus 25 μg ml^−1 gramicidin in the pipet solution, recorded when the access resistance dropped to <60 MΩ after tight seal formation. Estimates of the direction of Cl^− current were obtained by recording using tight-seal cell-attached techniques^31 (>1 GΩ seal) in current clamp mode. A downward deflection signified outward (i.e., hyperpolarizing) Cl^− current.
One complication of whole-cell patch clamp recording is that normal ionic gradients are disrupted. Therefore, in order to verify that THP reduced tonic GABAergic currents in intact cells under conditions of unperturbed internal Cl^−, we directly recorded pharmacologically isolated tonic GABAergic current from the soma using perforated-patch voltage-clamp techniques in the hippocampal slice.

The subject of test [2] is α4β2δ GABAA receptors. In words: Whole cell patch clamp of GABA-gated current, recombinant receptors in HEK-293 cells. The format is cell-based, human or mouse α4, rat β2, human δ. The conditions noted are these: 30 nM THP. The text has this:
Recombinant receptors: Transfection—Plasmids obtained from S. Vicini (rat α1, α5, β2, β3 and γ2), P. Whiting (human α4 and δ) and N. L. Harrison (mouse α4) were propagated in E coli DH5α and prepared using Qiagen Maxi- or Midi-prep kits. (Rat, mouse and human α1, β2, β3 and γ2 subunits are identical or nearly identical.) All receptors were transfected at a 1:1:1 ratio, except α1β2γ2 (1:1:5)^12, α4βδ (5:1:5)^13 and α4β2γ2 (5:1:1). HEK-293 cells were maintained in medium (DMEM:Ham's F-12 1:1) supplemented with 10% fetal calf serum at 37° C. in a humid 5% CO2 atmosphere. Cells were transfected using calcium phosphate or Polyfect (Qiagen) and co-transfected with enhanced green fluorescent protein (ratio of DNA to eGFP was 6:1 or 10:1 depending on the DNA concentration) for visualization. α4-containing GABAA receptors required 2-3 d for maximal levels of expression; all other receptors were recorded 1-2 d after transfection. Because mouse α4 and human α4-containing receptors yielded the same results, the currents were averaged together.
Whole cell patch clamp recording—GABA-gated currents were recorded at room temperature (20-22° C.) at a holding potential of −50 mV^14. The pipet solution contained (in mM): N-methyl-D-glucamine chloride 120, Cs4BAPTA 5 (Calbiochem), Mg-ATP 5, and an ATP regeneration system (20 mM Tris phosphocreatine and creatine kinase). Internal [Cl^−] or the holding potential were varied, using gluconate as the anion, to alter the direction of Cl^− flow, corrected for the junction potential. In some cases, current-voltage curves were constructed using the peak current response to agonist or agonist+THP across a range of holding potentials (−60 to +60) applied as 10 mV steps, or as a voltage ramp. […] Traces are presented as the average of 3 traces after subtraction of the leak current. […] This rapid application technique yields currents with a rapid rise phase. THP was also bath applied 30 s prior to tests of steroid effects. Currents were recorded using an Axopatch 1D amplifier (Axon Instruments) filtered at 2 kHz (four-pole Bessel filter) and detected at 10 kHz (pClamp 5.1). Analysis of peak current was accomplished with pClamp 9.2 and Origin software (Microcal).
Following the recording, the patch was blown out, and the open tip potential recorded using solutions with a 5% difference in NaCl osmolarity to verify the approximate solution exchange time. The time constant (τ) for desensitization was approximated using non-linear curve fitting routines with Levenburg-Marquardt algorithms (Origin software, Microcal). Goodness of fit was determined by minimizing the sum of the squares of deviations of the theoretical curve from the experimental points.
Recombinant receptors: Human embryonic kidney (HEK)-293 cells were transfected with α4 β2δ or other indicated subunit combinations (see Supplementary Methods) and co-transfected with enhanced green fluorescent protein for visualization. GABA-gated currents were recorded at room temperature (20-22° C.) at a holding potential of −50 mV^17 using a pipet solution containing 120 mM: N-methyl-D-glucamine chloride. Internal [Cl^−] or the holding potential were varied to alter the direction of Cl^− flow. […] Currents were recorded using an Axopatch 1D amplifier (Axon Instruments) filtered at 2 kHz (four-pole Bessel filter), detected at 10 kHz and analyzed with pClamp 9.2. Desensitization rate was determined using non-linear curve-fitting routines (Origin, Microcal; see next section).
Further Studies with Recombinant receptors: Transfection—Plasmids obtained from S. Vicini (rat α1, α5, β2, β3 and y2), P. Whiting (human α4 and 6) and N. L. Harrison (mouse α4) were propagated in E coli DH5α and prepared using Qiagen Maxi- or Midi-prep kits. (Rat, mouse and human α1, β2, β3 and γ2 subunits are identical or nearly identical.) All receptors were transfected at a 1:1:1 ratio, except a132γ2 (1:1:5)^12, α4β28 (5:1:5)^13 and α4β2γ2 (5:1:1). […]
Background: In patch-clamp work, channel activity is measured electrically.

Take `CC(=O)[C@H]1CC[C@H]2[C@@H]3CC[C@H]4C[C@H](O)CC[C@]4(C)[C@H]3CC[C@]12C` [THP, 3α-OH-5α[β]-pregnan-20-one]: the “depression of outward GABAergic current” value in test [1] (30 nM THP, pubertal, 1 μM TTX, 1 μM GABA) was determined as 40±8%. Besides, the “effect on post-synaptic GABAergic tonic current” value in test [1] (before puberty) is listed as “had no effect”. For the same molecule, in test [1] (pubertal), the “effect on reversal potential” value is listed as “did not alter the reversal potential”. Besides, the “effect on GABA-gated conductance (gabazine-sensitive slope)” value in test [1] (pubertal, 10 mV steps −60 to −40 mV) is recorded as “decreased the GABA-gated conductance”. Also, the “effect on Cl− reversal potential” value in test [2] is given as “did not itself alter the Cl^− reversal potential”. Moreover, the “effect applied without GABA” value in test [2] (no GABA) is “had no effect”. In addition, in test [2] (20 nM GABA), the “effect on outward current gated by 20 nM GABA” value is recorded as “potentiated”. Also, the “effect on inward currents” value in test [2] (1 μM GABA) is “robustly increased inward currents”. In test [2] (1 μM GABA, −50 mV, mean±SEM), the “decrease of outward GABA-gated Cl− current” value was 28±3%. For the same molecule, the “effect on peak current” value in test [2] (100 μM GABA) is “unchanged”. For the same molecule, in test [2] (100 μM GABA for 2 s, pre-THP 8±2%), the “desensitization of outward currents” value amounted to 87±5.6%. Also, the “time constant (τ) of desensitization” value in test [2] (100 μM GABA, pre-THP 1700±200 ms) worked out at 230 ± 35 ms. Further, the “decrease of conductance of the outward current” value in test [2] (across a range of voltage steps) is listed as 36-43%.
